Patent publication US8663653B2, “Efficient cell culture system for hepatitis C virus genotype 2B” (priority 2008, dated 2014)
“Also recorded” adds a separate entry of the source.

Tested on: JFH1-based recombinants of genotypes 1a, 1b, 2a, 2b, and 6a
Assay type: cell-based, hepatitis C virus

NC12CC3CC(CC(C3)C1)C2 [amantadine]
effect on number of infected cells and supernatant HCV RNA titers: no apparent effect; also recorded: did not decrease the number of infected cells or supernatant HCV RNA titers

NC(=O)c1ncn([C@@H]2O[C@H](CO)[C@@H](O)[C@H]2O)n1 [ribavirin]
effect on number of infected cells and supernatant HCV RNA titers: no apparent effect; also recorded: did not decrease the number of infected cells or supernatant HCV RNA titers
